We go through two molecules from ChEMBL document CHEMBL1147835, “A practical synthesis of the major 3-hydroxy-2-pyrrolidinone metabolite of a potent CDK2/cyclin A inhibitor” (Bioorg Med Chem Lett, 2006).

For assay [1], the system named is A2780. As to the kind of experiment: Antiproliferative activity against human A2780 cells. The format is functional, cell-based.
Assay [2] addresses Cyclin-dependent kinase 2/cyclin A (Homo sapiens, UniProt P24941). In words: Inhibition of CDK2/cyclin A. The format is protein-complex assay.

The IC50 is the point on the concentration scale where inhibition reaches its midpoint. High values mean lower potency, low ones higher potency. With `C[C@H](C(=O)Nc1cc(C2CC2)n[nH]1)c1ccc(N2CC[C@@H](O)C2=O)cc1`, the results for the IC50 in assay [1] and in assay [2] were 1600 nM and 27 nM, respectively.
The corresponding values for `C[C@H](C(=O)Nc1cc(C2CC2)n[nH]1)c1ccc(N2CC[C@H](O)C2=O)cc1` are 2200 nM and 27 nM.
